The values below come from paper PMC12366361, “Biochemical properties of glycerol kinase from the hypersaline-adapted archaeon Haloferax volcanii” (Applied and Environmental Microbiology, 2025).

Data set [1] addresses T1, glycerol kinase (GK, His-GK) (Haloferax volcanii, UniProt D4GYI5).
T1 construct: gene glpK; N-terminal His-tagged GK (His-GK)
T1 sequence (D4GYI5 1-510): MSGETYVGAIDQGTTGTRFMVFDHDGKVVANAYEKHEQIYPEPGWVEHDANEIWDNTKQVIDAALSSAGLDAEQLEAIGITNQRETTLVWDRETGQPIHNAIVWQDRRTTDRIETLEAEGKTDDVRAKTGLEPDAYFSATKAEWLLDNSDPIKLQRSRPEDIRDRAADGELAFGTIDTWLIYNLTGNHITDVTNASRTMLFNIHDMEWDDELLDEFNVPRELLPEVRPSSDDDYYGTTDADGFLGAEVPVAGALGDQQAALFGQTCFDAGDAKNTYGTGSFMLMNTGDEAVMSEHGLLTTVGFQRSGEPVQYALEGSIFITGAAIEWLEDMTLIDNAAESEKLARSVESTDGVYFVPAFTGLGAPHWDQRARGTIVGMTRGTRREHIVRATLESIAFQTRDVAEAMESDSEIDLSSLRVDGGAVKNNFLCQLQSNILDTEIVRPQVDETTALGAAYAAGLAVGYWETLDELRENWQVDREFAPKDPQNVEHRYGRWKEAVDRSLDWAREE
The experiment in a line: coupled enzyme kinetics of purified His-GK (Hill fit, n = […]); further DSF stabilization together with glycerol ([…]°C). The class given is biochemical.

For data set [2], the target named is T1, glycerol kinase (GK, His-GK). Description: coupled enzyme kinetics of purified His-GK (Hill fit, n = […]); supported by DSF shift ([…] to […]°C) and SEC dimer-to-tetramer shift. Type of data set: biochemical.
Data set [3] concerns the molecule itself. The experiment in a line: SEC; Superdex 200 Increase 10/300 GL, 50 mM HEPES pH 7.5, 2 M NaCl, 1 mM DTT, without glycerol; 0.3 mL/min; Ni2+-NTA-purified His-GK dialysed against the same buffer; mass from Kav against standards. In general terms: SEC sorts molecules by how far they enter the pores of the column.
Data set [4] deals with the molecule itself. Description: SEC; Superdex 200 Increase 10/300 GL, 50 mM HEPES pH 7.5, 2 M NaCl, 1 mM DTT, with 10% (vol/vol) glycerol; 0.3 mL/min; Ni2+-NTA-purified His-GK dialysed against the same buffer; the isolated tetramer was also kept overnight at 4°C and run again; mass from Kav against standards.

In general, Kd refers to the concentration at which binding is half-saturated. Consider `Nc1ncnc2c1ncn2[C@@H]1O[C@H](COP(=O)(O)OP(=O)(O)OP(=O)(O)O)[C@@H](O)[C@H]1O` [ATP], for which the Kd in data set [1] amounted to 1600 ± 80 µM.
Take `OCC(O)CO` [glycerol]: the Kd in data set [2] is 1440 ± 160 µM.

B1: Haloferax volcanii glycerol kinase fused to an N-terminal polyhistidine tag (His-GK) (enzyme, UniProt D4GYI5 1-510, looked up)
chain: MSGETYVGAIDQGTTGTRFMVFDHDGKVVANAYEKHEQIYPEPGWVEHDANEIWDNTKQVIDAALSSAGLDAEQLEAIGITNQRETTLVWDRETGQPIHNAIVWQDRRTTDRIETLEAEGKTDDVRAKTGLEPDAYFSATKAEWLLDNSDPIKLQRSRPEDIRDRAADGELAFGTIDTWLIYNLTGNHITDVTNASRTMLFNIHDMEWDDELLDEFNVPRELLPEVRPSSDDDYYGTTDADGFLGAEVPVAGALGDQQAALFGQTCFDAGDAKNTYGTGSFMLMNTGDEAVMSEHGLLTTVGFQRSGEPVQYALEGSIFITGAAIEWLEDMTLIDNAAESEKLARSVESTDGVYFVPAFTGLGAPHWDQRARGTIVGMTRGTRREHIVRATLESIAFQTRDVAEAMESDSEIDLSSLRVDGGAVKNNFLCQLQSNILDTEIVRPQVDETTALGAAYAAGLAVGYWETLDELRENWQVDREFAPKDPQNVEHRYGRWKEAVDRSLDWAREE
notes: calculated His-GK monomer 56.7 kDa; Found by SEC as a homodimer (no glycerol) or as a homodimer plus a homotetramer (10% glycerol); also called GlpK; H. volcanii GK; source: H. volcanii H1207-pJAM4351 grown in GlyMM, purified (Ni2+-NTA resin, then SEC); not shown: His6, N-terminal, kept
One may read the stoichiometry N as a count of units in the complex or per binding partner. Turning to B1, the “stoichiometry N” value amounted to 2 in data set [3] and 4 in data set [4].
